{
  "source": "patent US10195313B2",
  "about": "“Method for forming hydrogel arrays using surfaces with differential wettability” (Wisconsin Alumni Research Foundation, priority 2014, dated 2019)",
  "tested_on": "endothelial cells (HUVECs, iPSC-ECs, hESC-ECs)",
  "assay": "endothelial cell tubule network formation (tubulogenesis) on patterned hydrogel array spots",
  "format": "cell-based, human",
  "settings": "0.067 mM to 0.267 of peptide incorporated into hydrogel arrays",
  "method": "In this Example, a patterned hydrogel array was used to investigate endothelial cell tubule network formation (termed “tubulogenesis”) in vitro.\nSpecifically, patterned hydrogel arrays were composed of 8-arm, 20 kDa polyethylene glycol) functionalized with norbenene. As illustrated in the schematic shown in FIG. 13A, the patterned hydrogel arrays included hydrogel spots contained from 30 mg/mL to 60 mg/mL PEG, from 30-70% crosslinking with an MMP-degradable crosslinking peptide (KCGGPQGIWGQGCK, SEQ ID NO:35 or KCGGPQGIAGQGCK, SEQ ID NO:36) and 0.25 mM to 2 mM of a cell adhesive peptide (CRGDS, SEQ ID NO:2). Patterned hydrogel array spots were seeded with human umbilical vein endothelial cells (HUVECs), human induced pluripotent stem cell-derived endothelial cells (iPSC-ECs), and human embryonic stem cell-derived endothelial cells (hESC-ECs) in culture media containing standard growth medium for each cell type (Medium 199 and EGM-2 BULLETKIT™ (Lonza, Basel, Switzerland) for HUVECs, VASCULIFE® and VEGF LifeFactors for iPSC-ECs and hESC-ECs (Lifeline Cell Technology, Frederick, Md.)).\nThe hydrogel spots that contained between 36 mg/mL to 60 mg/mL PEG, 30-70% crosslinking with an MMP-degradable crosslinking peptide and 0.25 mM to 2 mM of the cell adhesive peptide supported of EC tubule formation (FIG. 13C). […]",
  "note": "Non-standard residues stand in square brackets, D forms with d. No end group written: not given here.",
  "data": [
    {"substance": "CKDAPYEWNFDILdYdAdFdE (CKDAPYEWNFDIL[dY][dA][dF][dE]; not fully specified (residue 13))", "values": [
      {"measurement": "persistence of tubule networks", "result": "enhanced"}
    ]}
  ]
}
